Laboratory results as given in the supplement of paper PMC13380429.

Columns and labels:
Settings in all cases: 72 h
Caco-2 [1] = assay: cell viability relative to DMSO; higher = less toxic
Calu-3 [2] = assay: as above
HepG2 [3] = assay: as above
U2OS [4] = assay: as above
Vero E6 [5] = assay: as above
Caco-2 [6] = assay: relative viability EC50 (midpoint between 100% and the lowest measured viability); higher = less toxic
Calu-3 [7] = assay: as above
HepG2 [8] = assay: as above
U2OS [9] = assay: as above
Vero E6 [10] = assay: as above
Caco-2 [11] = assay: drug sensitivity score (DSS) for viability; higher = more toxic; extreme values may be limits of the assay
Calu-3 [12] = assay: as above
HepG2 [13] = assay: as above
U2OS [14] = assay: as above
Vero E6 [15] = assay: as above

Structure (SMILES) | cell viability (Caco-2 [1]; 1 nM) [%] | cell viability (Caco-2 [1]; 10 nM) [%] | cell viability (Caco-2 [1]; 100 nM) [%] | cell viability (Caco-2 [1]; 1000 nM) [%] | cell viability (Caco-2 [1]; 10000 nM) [%] | cell viability (Calu-3 [2]; 1 nM) [%] | cell viability (Calu-3 [2]; 10 nM) [%] | cell viability (Calu-3 [2]; 100 nM) [%] | cell viability (Calu-3 [2]; 1000 nM) [%] | cell viability (Calu-3 [2]; 10000 nM) [%] | cell viability (HepG2 [3]; 1 nM) [%] | cell viability (HepG2 [3]; 10 nM) [%] | cell viability (HepG2 [3]; 100 nM) [%] | cell viability (HepG2 [3]; 1000 nM) [%] | cell viability (HepG2 [3]; 10000 nM) [%] | cell viability (U2OS [4]; 1 nM) [%] | cell viability (U2OS [4]; 10 nM) [%] | cell viability (U2OS [4]; 100 nM) [%] | cell viability (U2OS [4]; 1000 nM) [%] | cell viability (U2OS [4]; 10000 nM) [%] | cell viability (Vero E6 [5]; 1 nM) [%] | cell viability (Vero E6 [5]; 10 nM) [%] | cell viability (Vero E6 [5]; 100 nM) [%] | cell viability (Vero E6 [5]; 1000 nM) [%] | cell viability (Vero E6 [5]; 10000 nM) [%] | relative viability EC50 (Caco-2 [6]) [µM] | relative viability EC50 (Calu-3 [7]) [µM] | relative viability EC50 (HepG2 [8]) [µM] | relative viability EC50 (U2OS [9]) [µM] | relative viability EC50 (Vero E6 [10]) [µM] | drug sensitivity score (Caco-2 [11]) | drug sensitivity score (Calu-3 [12]) | drug sensitivity score (HepG2 [13]) | drug sensitivity score (U2OS [14]) | drug sensitivity score (Vero E6 [15])
COc1cc(O)c2c(c1)C(=O)c1cc(C)cc(O)c1C2=O [rheochrysidin] | 100 | 109 | 97.9 | 96.9 | 93.5 | 101 | 104 | 105 | 101 | 96.8 | 92.7 | 106 | 108 | 107 | 109 | 93.4 | 98.8 | 101 | 100 | 93.5 | 98.9 | 102 | 98.5 | 98.8 | 101 | > 10 | > 10 | > 10 | > 10 | > 10 | 0 | 0 | 0 | 0 | 0
C1COC(NC(C2CC2)C2CC2)=N1 [rilmenidine] | 103 | 100 | 103 | 93.4 | 104 | 98.6 | 82.1 | 109 | 95.8 | 105 | 99.3 | 110 | 97.2 | 100 | 103 | 104 | 97 | 108 | 98.2 | 104 | 95.9 | 99.1 | 95.3 | 101 | 97.4 | > 10 | > 10 | > 10 | > 10 | > 10 | 0 | 0 | 0 | 0 | 0
CC(C)c1nc(CN(C)C(=O)N[C@H](C(=O)N[C@@H](Cc2ccccc2)C[C@H](O)[C@H](Cc2ccccc2)NC(=O)OCc2cncs2)C(C)C)cs1 [ritonavir] | 97.8 | 94.3 | 96.3 | 100 | 77.5 | 102 | 87 | 93.7 | 102 | 98.6 | 98.6 | 104 | 94 | 107 | 110 | 105 | 97.5 | 98 | 94.5 | 95.4 | 94.4 | 97.5 | 89.4 | 102 | 108 | > 10 | > 10 | > 10 | > 10 | > 10 | 0.8 | 0 | 0 | 0 | 0
CC(=O)N[C@@H](CC(=O)O)C(=O)N[C@@H](CCC(=O)O)C(=O)O [spaglumic-acid] | 105 | 98.1 | 101 | 94.6 | 101 | 89.7 | 93.3 | 100 | 97.2 | 105 | 101 | 108 | 91.5 | 114 | 95.5 | 101 | 96.2 | 104 | 102 | 102 | 93.6 | 105 | 101 | 102 | 100 | > 10 | > 10 | > 10 | > 10 | > 10 | 0 | 0 | 0 | 0 | 0
Nc1ccc(S(=O)(=O)Nc2ccc(Cl)nn2)cc1 [sulfachlorpyridazine] | 99.6 | 93.4 | 94.8 | 106 | 106 | 109 | 91 | 98.5 | 104 | 109 | 93 | 105 | 105 | 108 | 107 | 98.8 | 93 | 100 | 102 | 103 | 97.8 | 95.3 | 101 | 97.1 | 103 | > 10 | > 10 | > 10 | > 10 | > 10 | 0 | 0 | 0 | 0 | 0
CCCCC1(COC(=O)CCC(=O)O)C(=O)N(c2ccccc2)N(c2ccccc2)C1=O [suxibuzone] | 87.1 | 104 | 94 | 91.8 | 84.1 | 104 | 101 | 95.2 | 99.2 | 95.6 | 122 | 99.5 | 102 | 103 | 94.6 | 96.4 | 101 | 96.5 | 102 | 95.5 | 110 | 103 | 103 | 92.4 | 102 | > 10 | > 10 | > 10 | > 10 | > 10 | 0.2 | 0 | 0 | 0 | 0
